# Where a name gives a salt, the structure may show the parent alone.
# Target: T1, human V1a receptor (Homo sapiens, UniProt P37288)
# T1 construct: expressed in transfected cells; host or cells: HEK293 cells, transiently transfected; membranes prepared
# Test: human V1a receptor binding (3H-Vasopressin SPA, membranes of transfected HEK293 cells)
# Details: not given
# Protocol: The human V1a receptor was cloned by RT-PCR from total human liver RNA. The coding sequence was subcloned in an expression vector after sequencing to confirm the identity of the amplified sequence. […] Cell membranes were prepared from HEK293 cells transiently transfected with the expression vector and grown in 20 liter fermenters with the following protocol.
# 50 g of cells are resuspended in 30 ml freshly prepared ice cold Lysis buffer (50 mM HEPES, 1 mM EDTA, 10 mM MgCl2 adjusted to pH=7.4+ complete cocktail of protease inhibitor (Roche Diagnostics)). Homogenized with Polytron for 1 min and sonicated on ice for 2×2 minutes at 80% intensity (Vibracell sonicator). The preparation is centrifuged 20 min at 500 g at 4° C., the pellet is discarded and the supernatant centrifuged 1 hour at 43,000 g at 4° C. (19'000 rpm). The pellet is resuspended in 12.5 ml Lysis buffer+12.5 ml Sucrose 20% and homogenized using a Polytron for 1-2 min. The protein concentration is determined by the Bradford method, and aliquots are stored at −80° C. until use. For binding studies 60 mg Yttrium silicate SPA beads (Amersham) are mixed with an aliquot of membrane in binding buffer (50 mM Tris, 120 mM NaCl, 5 mM KCl, 2 mM CaCl2, 10 mM MgCl2) for 15 minutes with mixing. 50 ul of bead/membrane mixture is then added to each well of a 96 well plate, followed by 50 ul of 4 nM 3H-Vasopressin (American Radiolabeled Chemicals). For total binding measurement 100 ul of binding buffer are added to the respective wells, for non-specific binding 100 ul of […] cold vasopressin and for compound testing 100 ul of a serial dilution of each compound in 2% DMSO. The plate is incubated 1 h at room temperature, centrifuged 1 min at 1000 g and counted on a Packard Top-Count. Non-specific binding counts are subtracted from each well, and data is normalized to the maximum specific binding set at 100%. To calculate an IC 50 the curve is fitted using a non-linear regression model (XLfit) and the Ki is calculated using the Cheng-Prussoff equation.
# T1 sequence (P37288 whole entry): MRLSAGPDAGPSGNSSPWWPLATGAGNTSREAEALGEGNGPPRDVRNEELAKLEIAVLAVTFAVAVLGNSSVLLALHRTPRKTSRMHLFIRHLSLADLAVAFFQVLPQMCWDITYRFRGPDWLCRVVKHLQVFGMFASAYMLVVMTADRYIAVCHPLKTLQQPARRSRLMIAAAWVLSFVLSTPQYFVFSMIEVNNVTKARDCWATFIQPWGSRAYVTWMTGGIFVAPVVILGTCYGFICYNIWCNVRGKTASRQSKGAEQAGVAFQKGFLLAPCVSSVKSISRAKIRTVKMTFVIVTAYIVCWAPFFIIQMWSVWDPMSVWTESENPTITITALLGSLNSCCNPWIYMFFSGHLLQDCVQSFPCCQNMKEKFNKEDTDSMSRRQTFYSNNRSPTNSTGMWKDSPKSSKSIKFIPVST
row,SMILES,Ki [nM]
1,"CNC(=O)Cn1cc(C(=O)N2CCN(c3nccc4sccc34)CC2)c2ccc(Cl)cc21 [Example 224, 2-[6-Chloro-3-(4-thieno[3,2-c]pyridin-4-yl-piperazine-1-carbonyl)-indol-1-yl]-N-methyl-acetamide]",27
2,"CN(C)C(=O)Cn1cc(C(=O)N2CCC(C#N)(c3ccccc3F)CC2)c2ccc(Cl)cc21 [Example 61, 2-{6-Chloro-3-[4-cyano-4-(2-fluoro-phenyl)-piperidine-1-carbonyl]-indol-1-yl}-N,N-dimethyl-acetamide]",13
3,CN(CCn1cc(C(=O)N2CCN(c3ccccc3F)CC2)c2ccc(Cl)cc21)S(C)(=O)=O [Example 220],17

# Same assay, conditions: displacement of 4 nM 3H-Vasopressin, HEK293 cell membranes, Ki by Cheng-Prussoff from IC50; read-out: Ki
row,SMILES,Ki [nM]
1,"CNC(=O)Cn1cc(C(=O)N2CCN(c3ccc(F)cc3F)CC2)c2ccc(Cl)cc21 [Example 190, 2-{6-Chloro-3-[4-(2,4-difluoro-phenyl)-piperazine-1-carbonyl]-indol-1-yl}-N-methyl-acetamide]",19
2,"COc1cccc(OC)c1C1CCN(C(=O)c2cn(CC(=O)N(C)C)c3ccccc23)CC1 [Example 62, 2-{3-[4-(2,6-Dimethoxy-phenyl)-piperidine-1-carbonyl]-indol-1-yl}-N,N-dimethyl-acetamide]",11
3,"CN(C)C(=O)Cn1cc(C(=O)N2CCC(c3cccc4c3OCC4)CC2)c2ccc(Cl)cc21 [Example 72, 2-{6-Chloro-3-[4-(2,3-dihydro-benzofuran-7-yl)-piperidine-1-carbonyl]-indol-1-yl}-N,N-dimethyl-acetamide]",3
4,"CC(C)Oc1ccccc1C1CCN(C(=O)c2cn(CC(=O)N(C)C)c3cc(Cl)ccc23)CC1 [Example 66, 2-{6-Chloro-3-[4-(2-isopropoxy-phenyl)-piperidine-1-carbonyl]-indol-1-yl}-N,N-dimethyl-acetamide]",4
5,"CN(C)CCn1cc(C(=O)N2CCN(c3ccccc3F)CC2)c2ccc(Cl)cc21 [Example 171, [6-Chloro-1-(2-dimethylamino-ethyl)-1H-indol-3-yl]-[4-(2-fluoro-phenyl)-piperazin-1-yl]-methanone]",7
6,"COc1ccccc1C1CCN(C(=O)c2cn(CC(=O)N(C)C)c3cc(Cl)ccc23)CC1 [Example 57, 2-{6-Chloro-3-[4-(2-methoxy-phenyl)-piperidine-1-carbonyl]-indol-1-yl}-N,N-dimethyl-acetamide]",2
7,"O=C(Cn1cc(C(=O)N2CCC(c3ccccc3F)CC2)c2ccc(Cl)cc21)N1CCNCC1 [Example 118, 2-{6-Chloro-3-[4-(2-fluoro-phenyl)-piperidine-1-carbonyl]-indol-1-yl}-1-piperazin-1-yl-ethanone hydrochloride]",12
8,"COc1cccc(OC)c1C1CCN(C(=O)c2cn(CC(=O)N3CCNCC3)c3cc(Cl)ccc23)CC1 [Example 69, 2-{6-Chloro-3-[4-(2,6-dimethoxy-phenyl)-piperidine-1-carbonyl]-indol-1-yl}-1-piperazin-1-yl-ethanone]",6
9,"CNC(=O)Cn1cc(C(=O)N2CCC(c3cccc4c3OCC4)CC2)c2ccc(Cl)cc21 [Example 76, 2-{6-Chloro-3-[4-(2,3-dihydro-benzofuran-7-yl)-piperidine-1-carbonyl]-indol-1-yl}-N-methyl-acetamide]",8
10,"COc1cccc(OC)c1C1CCN(C(=O)c2cn(CC(=O)c3ccccn3)c3cc(Cl)ccc23)CC1 [Example 44, 2-{6-Chloro-3-[4-(2,6-dimethoxy-phenyl)-piperidine-1-carbonyl]-indol-1-yl}-1-pyridin-2-yl-ethanone]",3

# Reference: patent US7781436B2 (Hoffmann-La Roche Inc., priority 2005, dated 2010)
